Consider three compounds from US5641775A, “3-phenylureido-1,5-benzodiazepine-diones useful as gastrin or antagonists” (Glaxo SpA, priority 1993, dated 1997).

The target of one assay is CCK-A receptor. Kind of assay: CCK receptor binding, CCK-A receptor (Pancreas Assay), Dal Forno procedure. As to the method:
(§1) The greater affinity of the compounds of the invention for the CCK-B receptor over the CCK-A receptor has also been established using the CCK receptor binding assays described by G Dal Fornos et al., J. Pharmcol. Exp & Ther. 261, 1056-1063, 1992.
(§2) The binding affinity of the compounds of the invention for the CCK-A receptor (Pancreas Assay) and CCK-B receptor (guinea pig cortex assay) was determined using the procedure of G Dal Forno et al J. Pharmacol. Exp & Ther. 261-1056-1063. The pKi values determined with respresentative compounds of invention were as follows: […]

The next assay addresses T1, CCK-B receptor (Cavia porcellus, UniProt H0VZC5).
T1 construct: CCK-B receptor (guinea pig cortex assay); from tissue; host or cells: guinea pig cortex
Kind of assay: CCK receptor binding, CCK-B receptor (guinea pig cortex assay), Dal Forno procedure. Conditions: read-out: pKi CCK-B (converted). As to the method: as §1, §2

T1 sequence (H0VZC5 entry or part of it): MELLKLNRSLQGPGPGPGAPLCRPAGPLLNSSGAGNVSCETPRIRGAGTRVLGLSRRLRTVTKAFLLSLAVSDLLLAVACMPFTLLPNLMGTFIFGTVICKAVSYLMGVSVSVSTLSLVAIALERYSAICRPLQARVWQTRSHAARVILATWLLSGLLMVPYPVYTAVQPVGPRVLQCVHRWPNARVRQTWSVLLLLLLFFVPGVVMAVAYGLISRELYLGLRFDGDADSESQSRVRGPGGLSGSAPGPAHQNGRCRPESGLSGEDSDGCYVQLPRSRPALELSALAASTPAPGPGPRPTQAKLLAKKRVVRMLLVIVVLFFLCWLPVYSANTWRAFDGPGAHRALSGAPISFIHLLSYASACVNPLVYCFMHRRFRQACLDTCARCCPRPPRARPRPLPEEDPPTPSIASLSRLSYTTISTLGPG

For the compound `O=C(Nc1cccc(-c2nn[nH]n2)c1)NC1C(=O)N(CCC2CCCC2)c2ccccc2N(c2ccccc2F)C1=O` (single isomer, unassigned; (-)) [Example 5, (-)-N-[1-(Cyclopentylethyl)-2,4-dioxo-5-(2-fluorophenyl)-2,3,4,5-tetrahydro-1H-benzodiazepin-3-yl]-N'-(3-tetrazolyl)phenylurea], the “pKi CCK-A” value on CCK-A receptor worked out at 6.51. The Ki at CCK-B receptor was 269 pM.

As for `O=C(Nc1cccc(-c2nn[nH]n2)c1)NC1C(=O)N(CCC2CCCC2)c2ccccc2N(c2ccccc2F)C1=O` (single isomer, unassigned; (+)) [Example 4, (+)-N-[1-(Cyclopentylethyl)-2,4-dioxo-5-(2-fluorophenyl)-2,3,4,5-tetrahydro-1H-benzodiazepin-3-yl]-N'-(3-tetrazolyl)phenylurea], at CCK-A receptor, the “pKi CCK-A” value was 6.63. The Ki at CCK-B receptor is 105 pM.

As to `CC(C)(C)CCN1C(=O)C(NC(=O)Nc2cccc(-c3nnn[nH]3)c2)C(=O)N(c2ccccc2)c2ccccc21` (stereo not drawn) [Example 3, N-[1-(3,3-Dimethylbutyl)-2,4-dioxo-5-phenyl-2,3,4,5-tetrahydro-1H-1,5-benzodiazepine-3-yl]-N'[3-(5-tetrazolyl)-phenyl]urea], the “pKi CCK-A” value on CCK-A receptor was determined as 7.64. Moreover, the Ki on CCK-B receptor was 288 pM.
